According to PMC7052193, “Nanobody-enabled monitoring of kappa opioid receptor states” (Nature Communications, 2020):
Where “and” joins values, the source holds several entries; their conditions need not be identical. Identical values can stand only once. Like-named read-outs stand apart in the source and are kept apart here.

How the values were obtained:
[1] = molecular target: T1, MOR (Homo sapiens, UniProt P35372); experiment: BRET assay MOR and Nb6; type: cell-based; conditions: Log [Drug]
T1 construct: expressed in transfected cells; host or cells: HEK 293T (by the general BRET protocol; not repeated for MOR)

[2] = molecular target: T2, KOR (Homo sapiens, UniProt P41145); experiment: Competition binding with 3H-JDTic in the absence or presence of 5 µM Nb6 or Nb39
[3] = system: ETA; type: cell-based, human; conditions: ETA-KOR
[4] = system: ETA; type: cell-based, human; conditions: ETA-KOR, Log [Drug]
[5] = molecular target: T2, KOR; experiment: Real-time BRET kinetics of KOR–Nb6; type: cell-based; conditions: for BRET, KOR + Nb6: SalA / Buffer
[6] = molecular target: T2, KOR; experiment: Real-time BRET kinetics of KOR–Nb39; type: cell-based; conditions: SalA / Buffer

C[C@@H](NC(=O)[C@@H](N)Cc1ccc(O)cc1)C(=O)NCC(=O)N(C)[C@@H](Cc1ccccc1)C(=O)NCCO [DAMGO]
response (Figure S9b) ([1]; M -6): 34.0976 and 31.8296 and 33.2096
response (Figure S9b) ([1]; M -7): 78.9066 and 72.2446 and 76.3636
response (Figure S9b) ([1]; M -8): 84.8057 and 83.6246 and 84.5411
response (Figure S9b) ([1]; M -9): 92.3096 and 93.4924
response (Figure S9b) ([1]; M -10): 90.9034 and 89.2915 and 90.6654
response (Figure S9b) ([1]; M -11): 93.7193 and 94.9714 and 95.2973
response (Figure S9b) ([1]; M -12): 99.6463 and 100.354

CC[C@H](C)[C@H](NC(=O)[C@H](CCCNC(=N)N)NC(=O)[C@H](CCCNC(=N)N)NC(=O)[C@H](CC(C)C)NC(=O)[C@H](Cc1ccccc1)NC(=O)CNC(=O)CNC(=O)[C@@H](N)Cc1ccc(O)cc1)C(=O)N[C@@H](CCCNC(=N)N)C(=O)N1CCC[C@H]1C(=O)N[C@@H](CCCCN)C(=O)N[C@@H](CC(C)C)C(=O)N[C@@H](CCCCN)C(=O)O [Dynorphin A, 1-13, Dynorphin A (1–13)]
Ki [2]: 2.43 ± 0.2 nM

CC[C@H](C)[C@H](NC(=O)[C@H](CC(=O)O)NC(=O)[C@H](CC(C)C)NC(=O)[C@H](Cc1c[nH]cn1)NC(=O)[C@@H]1CSSC[C@H](N)C(=O)N[C@@H](CO)C(=O)N[C@H]2CSSC[C@H](NC(=O)[C@H](CCC(=O)O)NC(=O)[C@H](CCCCN)NC(=O)[C@H](CC(=O)O)NC(=O)[C@H](CCSC)NC(=O)[C@H](CC(C)C)NC(=O)[C@H](CO)NC(=O)[C@H](CO)NC2=O)C(=O)N[C@@H](C(C)C)C(=O)N[C@@H](Cc2ccc(O)cc2)C(=O)N[C@@H](Cc2ccccc2)C(=O)N1)C(=O)N[C@H](C(=O)N[C@@H](Cc1c[nH]c2ccccc12)C(=O)O)[C@@H](C)CC [Endothelin-1]
Net BRET receptor and Nb6, source data Figure 5b ([3]; Log [Endothelin-1,] M = -5): 4.499 and 7.7967 and 6.394
Net BRET receptor and Nb6, source data Figure 5b ([3]; Log [Endothelin-1,] M = -6): 5.268 and 6.925 and 6.885
Net BRET receptor and Nb6, source data Figure 5b ([3]; Log [Endothelin-1,] M = -7): 45.5139 and 37.9048 and 42.0353
Net BRET receptor and Nb6, source data Figure 5b ([3]; Log [Endothelin-1,] M = -8): 94.8754 and 92.9034 and 94.0384
Net BRET receptor and Nb6, source data Figure 5b ([3]; Log [Endothelin-1,] M = -9): 99.5856 and 100.414 and 100.568
Net BRET receptor and Nb6, source data Figure 5b ([3]; Log [Endothelin-1,] M = -10): 98.7901 and 95.8099 and 98.252
Net BRET receptor and Nb6, source data Figure 5b ([3]; Log [Endothelin-1,] M = -11): 101.512 and 91.9128 and 97.2504
Net BRET G protein activation, source data Figure 5c ([4]; M = -5.5): 8.126 and 14.2188 and 11.7402
Net BRET G protein activation, source data Figure 5c ([4]; M = -6.5): 13.3731 and 8.584 and 11.2246
Net BRET G protein activation, source data Figure 5c ([4]; M = -7.5): 27.9656 and 34.3494 and 31.9455
Net BRET G protein activation, source data Figure 5c ([4]; M = -8.5): 53.981 and 48.3799 and 51.5065
Net BRET G protein activation, source data Figure 5c ([4]; M = -9.5): 73.7875 and 86.5149 and 80.3002
Net BRET G protein activation, source data Figure 5c ([4]; M = -10.5): 94.2005 and 91.2115 and 93.274
Net BRET G protein activation, source data Figure 5c ([4]; M = -11.5): 104.258 and 97.1609 and 101.662
Net BRET G protein activation, source data Figure 5c ([4]; M = -12.5): 100.567 and 115.131

NC(=O)c1ccc(Oc2ccc(CN3CCC[C@H]3c3cccnc3)cc2)c(F)c1 [LY2459989]
increase of binding affinity in the presence of Nb6 [2]: ~ 6 fold
Ki ([2]; read-out: Ki ± SEM): 3.4 ± 0.25 nM

O=C(N[C@@H]1C=CC2[C@H]3Cc4ccc(O)c5c4[C@@]2(CCN3CC2CC2)[C@H]1O5)c1cccc(I)c1 (stereo partly drawn) [MP1104]
effect of Nb6 on binding affinity [2]: only slightly affected

COC(=O)[C@@H]1C[C@H](OC(C)=O)C(=O)[C@H]2[C@@]1(C)CC[C@H]1C(=O)O[C@H](c3ccoc3)C[C@]21C [Sal A, Salvinorin A]
t1/2 of decrease in Nb6-KOR BRET ([5]; 10 µM Sal A added): 50 ± 10 s
BRET, KOR + Nb6 ([5]; time 5 min): 1.409 and 1.4035 and 1.421 and 1.389
BRET, KOR + Nb6 ([5]; time 6 min): 1.298 and 1.281 and 1.268 and 1.228
BRET, KOR + Nb6 ([5]; time 7 min): 1.173 and 1.165 and 1.166 and 1.137
BRET, KOR + Nb6 ([5]; time 8 min): 1.122 and 1.113 and 1.12 and 1.093
BRET, KOR + Nb6 ([5]; time 9 min): 1.088 and 1.0779 and 1.094 and 1.0747
BRET, KOR + Nb6 ([5]; time 10 min): 1.082 and 1.078 and 1.0874 and 1.065
BRET, KOR + Nb6 ([5]; time 11 min): 1.074 and 1.07 and 1.083 and 1.058
BRET, KOR + Nb6 ([5]; time 12 min): 1.074 and 1.063 and 1.076 and 1.058
BRET, KOR + Nb6 ([5]; time 13 min): 1.075 and 1.061 and 1.082 and 1.064
BRET, KOR + Nb6 ([5]; time 14 min): 1.069 and 1.063 and 1.08 and 1.062
BRET, KOR + Nb6 ([5]; time 15 min): 1.083 and 1.067 and 1.08 and 1.061
BRET, KOR + Nb6 ([5]; time 16 min): 1.077 and 1.067 and 1.078 and 1.056
BRET, KOR + Nb6 ([5]; time 17 min): 1.076 and 1.07 and 1.085 and 1.064
BRET, KOR + Nb6 ([5]; time 18 min): 1.081 and 1.07 and 1.082 and 1.068
BRET, KOR + Nb6 ([5]; time 19 min): 1.086 and 1.077 and 1.091 and 1.066
BRET, KOR + Nb6 ([5]; time 20 min): 1.081 and 1.073 and 1.083 and 1.0658
BRET, KOR + Nb6 ([5]; time 21 min): 1.087 and 1.079 and 1.095 and 1.076
BRET, KOR + Nb6 ([5]; time 22 min): 1.074 (2×) and 1.079 and 1.0714
BRET, KOR + Nb6 ([5]; time 23 min): 1.088 and 1.082 and 1.074 and 1.0724
BRET, KOR + Nb6 ([5]; time 24 min): 1.091 and 1.078 and 1.081 and 1.076
BRET, KOR + Nb6 ([5]; time 25 min): 1.086 and 1.081 and 1.078 and 1.0719
BRET, KOR + Nb6 ([5]; time 26 min): 1.084 and 1.082 and 1.088 and 1.07
BRET, KOR + Nb6 ([5]; time 27 min): 1.079 and 1.0834 and 1.085 and 1.083
BRET, KOR + Nb6 ([5]; time 28 min): 1.084 and 1.076 and 1.086 (2×)
BRET, KOR + Nb6 ([5]; time 29 min): 1.0858 and 1.081 (2×) and 1.075
BRET, KOR + Nb39 ([6]; time 5 min): 0.0262 and 0.02211 and 0.02102 and 0.02289
BRET, KOR + Nb39 ([6]; time 6 min): 0.3036 and 0.3141 and 0.3188 and 0.3115
BRET, KOR + Nb39 ([6]; time 7 min): 0.3004 and 0.3137 and 0.3136 and 0.3142
BRET, KOR + Nb39 ([6]; time 8 min): 0.2978 and 0.3081 and 0.3108 and 0.3153
BRET, KOR + Nb39 ([6]; time 9 min): 0.2922 and 0.311 and 0.3085 and 0.3127
BRET, KOR + Nb39 ([6]; time 10 min): 0.2996 and 0.3174 and 0.3198
BRET, KOR + Nb39 ([6]; time 11 min): 0.2967 and 0.3155 and 0.3205
BRET, KOR + Nb39 ([6]; time 12 min): 0.298 and 0.3156 and 0.3148 and 0.3226
BRET, KOR + Nb39 ([6]; time 13 min): 0.2971 and 0.3177 and 0.3205 and 0.3168
BRET, KOR + Nb39 ([6]; time 14 min): 0.2971 and 0.3134 and 0.3132 and 0.3235
BRET, KOR + Nb39 ([6]; time 15 min): 0.2986 and 0.3191 and 0.3238 and 0.3265
BRET, KOR + Nb39 ([6]; time 16 min): 0.2964 and 0.3182 and 0.3184 and 0.324
BRET, KOR + Nb39 ([6]; time 17 min): 0.3018 and 0.3186 and 0.3227 and 0.3317
BRET, KOR + Nb39 ([6]; time 18 min): 0.3003 and 0.3158 and 0.3185 and 0.326
BRET, KOR + Nb39 ([6]; time 19 min): 0.3043 and 0.3186 and 0.3228 and 0.323
BRET, KOR + Nb39 ([6]; time 20 min): 0.2961 and 0.3231 and 0.3183 and 0.3325
BRET, KOR + Nb39 ([6]; time 21 min): 0.3008 and 0.3186 and 0.3235
BRET, KOR + Nb39 ([6]; time 22 min): 0.3025 and 0.3173 and 0.3147 and 0.3318
BRET, KOR + Nb39 ([6]; time 23 min): 0.2987 and 0.3226 and 0.3296
BRET, KOR + Nb39 ([6]; time 24 min): 0.2996 and 0.3206 and 0.3159 and 0.3334
BRET, KOR + Nb39 ([6]; time 25 min): 0.3041 and 0.3179 and 0.3117 and 0.3236
BRET, KOR + Nb39 ([6]; time 26 min): 0.2994 and 0.3089 and 0.3198 and 0.3347
BRET, KOR + Nb39 ([6]; time 27 min): 0.3042 and 0.3155 and 0.3211 and 0.3323
BRET, KOR + Nb39 ([6]; time 28 min): 0.2989 and 0.303 and 0.3151 and 0.3345
BRET, KOR + Nb39 ([6]; time 29 min): 0.2966 and 0.3193 and 0.305 and 0.3267
BRET, KOR + Nb39 ([6]; time 30 min): 0.2958 and 0.3183 and 0.3167 and 0.3297
